Values quoted from earlier work in patent US7169819B2, “Pharmaceutical compositions of fenretinide having increased bioavailability and methods of using the same” (Childrens Hospital Los Angeles, priority 2000, dated 2007).

Columns and labels:
[1] = background statement
[2] = rodents

## CC1=C(/C=C/C(C)=C/C=C/C(C)=C/C(=O)Nc2ccc(O)cc2)C(C)(C)CCC1 [Fenretinide, all-trans-N-(4-hydroxyphenyl)retinamide]
[1]
  Solubility in aqueous solution: minimally soluble
[2]
  half-life: 12 to 16 h
